According to patent US10034886B2, “GLP-1 receptor modulators” (Celgene International II SÀRL, priority 2014, dated 2018):
Like-named read-outs stand apart in the source and are kept apart here.

Target: T1, GLP-1R (Homo sapiens, UniProt P43220)
T1 construct: host or cells: GLP-1R CRE-bla CHO-K1 cells
Test: EC20 GLP-1(9-36) PAM cAMP assay: dose response of compound in the presence of fixed concentration of GLP-1(9-36)
Format: cell-based
Conditions: GLP-1R CRE-bla CHO-K1 cells, read-out: EC20 GLP-1(9-36) PAM EC50
In short: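 GLP-1R CRE-bla CHO-K1 cells treated 30 min at 37 °C with 12-point compound dose response plus fixed EC20 GLP-1(9-36), with IBMX, in HBSS/HEPES/0.1% BSA pH 7.4. Total cAMP measured by luminescent detection against standard curve; EC50 and Emax from non-linear regression.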

[1] = dose response of compound in presence of fixed concentration of GLP-1(9-36)
[2] = compound dose response with fixed concentration of GLP-1(9-36)

T1 sequence (P43220 24-463): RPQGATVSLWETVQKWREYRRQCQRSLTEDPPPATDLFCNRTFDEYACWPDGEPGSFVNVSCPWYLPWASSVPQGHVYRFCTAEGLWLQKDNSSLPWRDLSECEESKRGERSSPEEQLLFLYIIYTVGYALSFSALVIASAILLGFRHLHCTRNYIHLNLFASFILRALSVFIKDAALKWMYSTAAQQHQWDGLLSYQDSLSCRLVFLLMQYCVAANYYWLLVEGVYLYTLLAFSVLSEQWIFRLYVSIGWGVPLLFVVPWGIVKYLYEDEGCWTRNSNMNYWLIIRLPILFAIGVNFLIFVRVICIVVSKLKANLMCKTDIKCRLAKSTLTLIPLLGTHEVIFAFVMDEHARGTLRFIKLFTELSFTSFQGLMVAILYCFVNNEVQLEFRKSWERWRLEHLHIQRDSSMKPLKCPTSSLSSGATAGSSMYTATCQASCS
T1 sequence (P01275 100-127 partner limits assumed): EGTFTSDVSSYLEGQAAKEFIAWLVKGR

Row | Compound | EC50 [1] [µM] | EC50 [2] [µM]
1 | CCCCCCCOc1ccc(-c2cnc(-c3ccc(C[C@H](NC(=O)c4cnc(C(C)(C)C)nc4)C(=O)NC(C(=O)O)C(O)c4ccccc4)cc3)nc2)cc1 (stereo partly shown) [Compound 953] | 0.8 to 2.5 | –
2 | COc1ccc(C(=O)N[C@@H](Cc2ccc(-c3ncc(-c4ccc(OCCCC(C)C)cc4)cn3)cc2)C(=O)N2CC(C(=O)O)C2)cc1 [Compound 1229] | – | 2.5 to 5
3 | CCCC1CCC(C2CCN(c3cnc(-c4ccc(C[C@H](NC(=O)c5ccc(C(C)(C)C)s5)C(=O)N5CC(C(=O)O)C5)cc4)nc3)C(=O)C2)CC1 (stereo partly shown) [Compound 1496] | – | 0.8 to 2.5
4 | CCCCCCCOc1ccc(-c2cnc(-c3ccc(C[C@H](NC(=O)c4ccc(C(C)(C)C)s4)C(=O)N[C@@H](CC(=O)O)C(=O)NC)cc3)nc2)cc1 [Compound 526] | < 0.8 | –
5 | CCCCCCCOc1ccc(-c2cnc(-c3ccc(C[C@H](NC(=O)c4ccc(CCCC)cc4)C(=O)N4CC[C@H](C(=O)O)C4)cc3)nc2)cc1 [Compound 850] | 2.5 to 5 | –
6 | Cc1ccc(-c2ccc(-c3cnc(-c4ccc(C[C@H](NC(=O)c5ccc(C(C)(C)C)cc5)C(=O)N[C@H](C)C(=O)O)cc4)nc3)cc2)cc1 [Compound 727] | 2.5 to 5 | –
7 | CC(C)CCCOc1ccc(-c2cnc(-c3ccc(C[C@H](NC(=O)c4ccc(C(C)(C)C)s4)C(=O)NC(C(=O)O)C(O)c4ccccc4)cc3)nc2)cc1 (stereo partly shown) [Compound 924] | 2.5 to 5 | –
8 | CCCCCOc1ccc(-c2cnc(-c3ccc(C[C@H](NC(=O)c4ccc(C(C)(C)C)cc4)C(=O)NCCC(=O)O)cc3)nc2)cc1 [Compound 489] | 0.8 to 2.5 | –
9 | CCCCCCCOc1ccc(-c2cnc(-c3ccc(C[C@H](NC(=O)c4ccc(C(C)(C)C)s4)C(=O)NCC4(C)CNC4)cc3)nc2)cc1 [Compound 986] | 0.8 to 2.5 | –
10 | CCC[C@H]1CC[C@H](C2CCN(c3cnc(-c4ccc(CC(NC(=O)c5ccc(C(C)(C)C)s5)C(=O)NS(=O)(=O)CC5CC5)cc4)nc3)CC2)CC1 (stereo partly shown) [Compound 1542] | – | < 0.8
11 | CC(C)C1CCN(c2cnc(-c3ccc(CC(NC(=O)c4ccc(C(C)(C)C)s4)C(=O)N4CC(C(=O)O)C4)cc3)nc2)CC1 (stereo not shown) [Compound 1422] | – | 0.8 to 2.5
12 | CCCCCCCOc1ccc(-c2cnc(-c3ccc(C[C@H](NC(=O)c4ccc(C(C)(C)C)s4)C(=O)NC(C(=O)O)C(O)c4cccnn4)cc3)nc2)cc1 (stereo partly shown) [Compound 915] | 0.8 to 2.5 | –
13 | CC(C)CCSc1ccc(-c2cnc(-c3ccc(C[C@H](NC(=O)c4ccc(C(C)(C)C)cc4)C(=O)NCCC(=O)O)cc3)nc2)cc1 [Compound 681] | 5 to 10 | –
14 | CCC[C@H]1CC[C@H](C2CCN(c3cnc(-c4ccc(C[C@H](NC(=O)c5ccc(C6CC6)cn5)C(=O)N5CC(C(=O)O)C5)cc4)nc3)CC2)CC1 [Compound 1538] | – | 0.8 to 2.5
15 | Cc1cc(C)n(-c2ccc(-c3cnc(-c4ccc(C[C@H](NC(=O)c5ccc(C(C)(C)C)s5)C(=O)N[C@H](C)C(=O)O)cc4)nc3)cc2)n1 [Compound 1006] | 0.8 to 2.5 | –
16 | CCCCCCCc1ccc(-c2cnc(-c3ccc(C[C@H](NC(=O)c4ccc(C(C)(C)C)cc4)C(=O)NCCC(=O)O)cc3)nc2)cc1 [Compound 679] | 0.8 to 2.5 | –
17 | C[C@@H](NC(=O)[C@H](Cc1ccc(-c2ncc(/C=C/c3ccc(F)cc3F)cn2)cc1)NC(=O)c1ccc(C(C)(C)C)s1)C(=O)O [Compound 1255] | – | 2.5 to 5
18 | CCCCCCCOc1ccc(-c2cnc(-c3ccc(C[C@H](NC(=O)c4ccc(C(C)(C)C)cc4)C(=O)N4CC[C@H](C(=O)O)C4)cc3)nc2)cc1 [Compound 632] | 0.8 to 2.5 | –
19 | Cc1ccc(/C=C/c2cnc(-c3ccc(C[C@H](NC(=O)c4ccc(C(C)(C)C)s4)C(=O)N4CC(C(=O)O)C4)cc3)nc2)cc1 [Compound 1091] | 0.8 to 2.5 | –
20 | CCCCCCCOc1ccc(-c2cnc(-c3ccc(C[C@@H](NC(=O)c4ccc(C(C)(C)C)s4)C(=O)N4CC(C(=O)O)C4)cc3)nc2)cc1 [Compound 1271] | – | 0.8 to 2.5
21 | C[C@@H](NC(=O)[C@H](Cc1ccc(-c2ncc(-c3ccc(OCC(C)(C)C)cc3)cn2)cc1)NC(=O)c1ccc(C(C)(C)C)s1)C(=O)O [Compound 739] | < 0.8 | –
22 | CC(C)(C)c1ccc(C(=O)N[C@@H](Cc2ccc(-c3ncc(-c4ccc([C@H]5CC[C@@H](C(C)(C)C)CC5)cc4)cn3)cc2)C(=O)N2CC(C(=O)O)C2)s1 [Compound 1182] | < 0.8 | –
23 | CC(C)CCCOc1ccc(-c2cnc(-c3ccc(C[C@H](NC(=O)c4ccc(OC(C)C)cc4)C(=O)N4CC(C(=O)O)C4)cc3)nc2)cc1 [Compound 1238] | – | 0.8 to 2.5
24 | COc1cccc(C2CCN(c3cnc(-c4ccc(C[C@H](NC(=O)c5ccc(C(C)(C)C)s5)C(=O)N5CC(C(=O)O)C5)cc4)nc3)CC2)c1 [Compound 1477] | – | < 0.8
25 | CCCC(C)Oc1ccc(-c2ccc(-c3cnc(-c4ccc(C[C@H](NC(=O)c5ccc(C(C)(C)C)s5)C(=O)N[C@H](C)C(=O)O)cc4)nc3)cc2)cc1 (stereo partly shown) [Compound 1296] | – | 2.5 to 5
